ChEMBL document CHEMBL1201862, “PubChem BioAssay data set” (2004)
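Growth conditions: 96-well plates. Treatment: test compound, 48 hours, 5 concentrations. Analysis: linear interpolation between bracketing concentrations; unreached endpoints set to highest concentration. GI50: concentration for 50% inhibition of growth.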 Calls of active or inactive are those of the source. Rule as the data show it: active = GI50 up to about 1.1 µM and inactive = higher.

Experiments:
Test in all cases: DTP human tumour cell line panel, 48 h
[1] = tested on: RXF 393
[2] = tested on: NCI-H460
[3] = tested on: MCF7
[4] = tested on: SR
[5] = tested on: HCT-116
[6] = tested on: ACHN
[7] = tested on: SK-OV-3
[8] = tested on: OVCAR-5
[9] = tested on: PC-3
[10] = tested on: HOP-62
[11] = tested on: NCI-H522
[12] = tested on: M14
[13] = tested on: SF-295
[14] = tested on: MOLT-4
[15] = tested on: A498
[16] = tested on: SF-539
[17] = tested on: SNB-75
[18] = tested on: MDA-N
[19] = tested on: SW-620
[20] = tested on: HL-60

Row | SMILES | GI50 [1] | GI50 [2] | GI50 [3] | GI50 [4] | GI50 [5] | GI50 [6] | GI50 [7] | GI50 [8] | GI50 [9] | GI50 [10] | GI50 [11] | GI50 [12] | GI50 [13] | GI50 [14] | GI50 [15] | GI50 [16] | GI50 [17] | GI50 [18] | GI50 [19] | GI50 [20]
1 | c1ccc(C(=NNc2nc3ccccc3[nH]2)c2ccccn2)nc1 | 0.197 µM (active) | 0.134 µM (active) | 0.143 µM (active) | 0.0371 µM (active) | 0.0832 µM (active) | 0.114 µM (active) | 0.103 µM (active) | 1.74 µM (inactive) | 0.224 µM (active) | 0.207 µM (active) | 0.0288 µM (active) | 0.126 µM (active) | 2.13 µM (inactive) | 0.015 µM (active) | 0.36 µM (active) | 0.177 µM (active) | 0.218 µM (active) | 0.394 µM (active) | 0.0698 µM (active) | –
2 | CSc1c(C#N)c(=O)[nH]c2[nH]nc(C)c12 | > 100 µM (inactive) | > 100 µM (inactive) | > 100 µM (inactive) | > 100 µM (inactive) | 33.3 µM (inactive) | – | > 100 µM (inactive) | > 100 µM (inactive) | > 100 µM (inactive) | – | – | > 100 µM (inactive) | – | > 100 µM (inactive) | > 100 µM (inactive) | > 100 µM (inactive) | > 100 µM (inactive) | > 100 µM (inactive) | > 100 µM (inactive) | > 100 µM (inactive)
3 | O=C(O)c1ccccc1CC1Cc2ccccc2C1 | > 100 µM (inactive) | > 100 µM (inactive) | > 100 µM (inactive) | > 100 µM (inactive) | > 100 µM (inactive) | > 100 µM (inactive) | > 100 µM (inactive) | > 100 µM (inactive) | > 100 µM (inactive) | > 100 µM (inactive) | > 100 µM (inactive) | > 100 µM (inactive) | > 100 µM (inactive) | > 100 µM (inactive) | – | > 100 µM (inactive) | > 100 µM (inactive) | > 100 µM (inactive) | > 100 µM (inactive) | > 100 µM (inactive)
4 | CCOC(=O)C1C(=O)C=C(c2cc(C)ccc2O)CC1c1cccc(Br)c1 (configuration not stated) | 14.4 µM (inactive) | 19.5 µM (inactive) | 14.9 µM (inactive) | 5.13 µM (inactive) | 18 µM (inactive) | 18.7 µM (inactive) | 14.2 µM (inactive) | 25.1 µM (inactive) | 7.8 µM (inactive) | 46.7 µM (inactive) | 14.7 µM (inactive) | 17.4 µM (inactive) | 13.6 µM (inactive) | 16 µM (inactive) | – | 16.2 µM (inactive) | – | 4.05 µM (inactive) | 25 µM (inactive) | 20.9 µM (inactive)
5 | c1ccc(Nc2nnc(Cn3ccc4ccccc43)s2)cc1 | 73.5 µM (inactive) | 47 µM (inactive) | 40.3 µM (inactive) | 12.8 µM (inactive) | 42.7 µM (inactive) | 39.8 µM (inactive) | > 100 µM (inactive) | > 100 µM (inactive) | 19.2 µM (inactive) | 29.9 µM (inactive) | 51.8 µM (inactive) | 59.8 µM (inactive) | 15.9 µM (inactive) | 23.1 µM (inactive) | > 100 µM (inactive) | 35.6 µM (inactive) | 20.9 µM (inactive) | > 100 µM (inactive) | 87.3 µM (inactive) | –
6 | Cc1nn(-c2ccccc2)c2nc3c(c(C)nn3-c3ccccc3)c(-c3ccccc3Br)c12 | > 100 µM (inactive) | > 100 µM (inactive) | > 100 µM (inactive) | > 100 µM (inactive) | > 100 µM (inactive) | > 100 µM (inactive) | > 100 µM (inactive) | > 100 µM (inactive) | > 100 µM (inactive) | > 100 µM (inactive) | > 100 µM (inactive) | > 100 µM (inactive) | 57.3 µM (inactive) | > 100 µM (inactive) | > 100 µM (inactive) | > 100 µM (inactive) | > 100 µM (inactive) | > 100 µM (inactive) | > 100 µM (inactive) | –
7 | O=S(=O)(c1ccc(/N=N/O)nc1)c1ccc2ccccc2c1 | – | 65.8 µM (inactive) | > 100 µM (inactive) | > 100 µM (inactive) | > 100 µM (inactive) | > 100 µM (inactive) | > 100 µM (inactive) | > 100 µM (inactive) | 38.5 µM (inactive) | > 100 µM (inactive) | > 100 µM (inactive) | > 100 µM (inactive) | > 100 µM (inactive) | > 10 µM (inactive) | > 100 µM (inactive) | > 100 µM (inactive) | 22.1 µM (inactive) | > 100 µM (inactive) | > 100 µM (inactive) | 47.8 µM (inactive)
8 | COC(=O)/C=C/c1ccc2c(c1)[C@H](C(=O)OC)[C@@H](c1ccc(O)cc1)O2 | – | 35.1 µM (inactive) | 9.02 µM (inactive) | 6.62 µM (inactive) | 38.5 µM (inactive) | 42.6 µM (inactive) | 69 µM (inactive) | > 100 µM (inactive) | 23.3 µM (inactive) | 35.8 µM (inactive) | 21.4 µM (inactive) | 10.5 µM (inactive) | 31.4 µM (inactive) | 8.45 µM (inactive) | 86.9 µM (inactive) | 44.7 µM (inactive) | – | 5.06 µM (inactive) | 6.08 µM (inactive) | 6.27 µM (inactive)
